Experimental data as given in publication PMC11154709, “4S-fluorination of ProB29 in insulin lispro slows fibril formation” (The Journal of Biological Chemistry, 2024).

Tests used:
diabetic mice = test: Reduction of blood glucose in diabetic mice; assay type: in vivo; details: 5 to 10% of the standard injection (3.5 and 1.75 mg kg-1 as printed in SI), commercial Humalog, subcutaneous, STZ-diabetic male NODscid mice 15-18 week old; mean ± SD of 4 biological replicates (Fig. S2)
Procedure: To verify bioactivity, lispro variants were injected subcutaneously into diabetic mice, and blood glucose was monitored over 2.5 h. Mouse models allow determination of activity but not time to onset of action ([27]). […] As expected, all lispro variants retained activity (Fig. 2A).
Figure 2 Biological activity and CD spectroscopy of lispro variants.A, lispros were injected subcutaneously into diabetic mice, and blood glucose was measured over time after injection. The data presented here represent the mean ± SD of 3 to 6 biological replicates. B–E, far-UV circular dichroism spectra (60 μM lispro in […] phosphate buffer, pH 8.0). […] 4R-F, 4R-fluoroproline; 4S-F, 4S-fluoroproline.
Experiments were conducted according to procedures approved by the Institutional Animal Care and Use Committee at the City of Hope. Adult (8–12 week old) male NODscid mice (Jackson Laboratory; stock # 001303) were injected intraperitoneally for three consecutive days with freshly prepared streptozotocin (45 mg kg^−1 body weight, suspended in 100 mM sodium citrate buffer, pH 4.5); diabetes was confirmed by the detection of high glucose levels (200–600 mg dL^−1) as measured by a glucomonitor (Freestyle, Abbott Diabetes Care). […] Blood glucose was measured from blood sampled from the lateral tail vein. […]
into the matrix solution (α -cyanohydroxycinnamic acid in 50% ACN, 0.1% TFA) and analyzed by […]

[1] = cited from earlier work
Source text: Removal of the constrained pyrrolidine ring of proline at position B28 grants additional conformational degrees of freedom and removes hydrophobic packing interactions at the dimer interface. […] However, the standard mutagenesis approach employed in the discovery of insulin lispro ([7]) (and other FDA-app ...

**Q.** Which results are given for “insulin lispro: fast-acting insulin with inversion of the residues ProB28 and LysB29; Humalog, Eli Lilly [reference compound]”?
**A.** reduction of blood glucose at lower lispro doses (diabetic mice): did not similarly reduce blood glucose in diabetic mice; absorption [1]: accelerate absorption
